What was measured:
[1] = system: GEO human colon cancer cells; experiment: Soft agar growth of GEO cells; type: cell-based
Description: (§1) Cells (10^4 cells/well) were seeded in 0.5 ml of 0.3% Difco Noble agar (Difco, Detroit, Mich.) supplemented with complete culture medium. This suspension was layered over 0.5 ml of 0.8% agar-medium base layer in 24 multiwell cluster dishes (Becton Dickinson) and treated with various concentrations of paclitaxel (day 0). The HYB 165 was added after 12 hrs (day 1) and on day 2, 3 and 4. 12 days after the last treatment, cells were stained with nitroblue tetrazolium (Sigma) and colonies larger than 0.05 mm were counted.

[2] = system: TGFα; experiment: Histochemical analysis of GEO tumors: TGFα; type: in vivo; conditions: single agent, after two cycles
Excerpt: (§2) Tumor specimens from the different groups of mice were examined by histochemical analysis at different time points to evaluate the expression of a variety of biological parameters.
(§3) TGFα and AR are growth factors which bind to EGFR and control human colon cancer growth through autocrine and paracrine mechanisms (F. Ciardiello and G. Tortora, Clin. Cancer Res. 4:821–828 (1998); D. S. Salomon, Crit. Rev. Oncol. Hematol. 19:183–232 (1995)).

[3] = system: p27; experiment: Histochemical analysis of GEO tumors: p27; type: in vivo; conditions: single agent
Excerpt: Tumor specimens from the different groups of mice were examined by histochemical analysis at different time points to evaluate the expression of a variety of biological parameters. […] No other treatment was able to affect RIα expression.
Loda et al. (Nature Medicine 3:231–234 (1997)) discloses that the cyclin-dependent kinase (CDK) inhibitor p27 is […] related to cell entry into S phase and proliferation and that reduction of its expression correlates with poor prognosis in colon cancer patients.

[4] = system: GEO colon cancer xenografts; experiment: GEO colon cancer xenografts in nude mice (tumor growth, survival); type: in vivo; conditions: single agent
Description: We investigated the antitumor activity of HYB 165 (AS RIα) in nude mice bearing GEO colon cancer xenografts, using either the intraperitoneal (i.p.) or the oral route of administration. When established GEO tumors of approximately […] were detectable, groups of 10 mice were treated i.p. with either HYB 165 or a control modified backbone oligonucleotide with a scrambled sequence, at 5 or 10 mg/kg/dose, daily on days 7 to 11 and 14 to 18. […] The control oligonucleotide produced no inhibition at 10 mg/kg/dose.
Following oral administration, modified backbone oligonucleotides (MBOs) are absorbed in the upper and lower part of the GI tract and distributed to major organs (S. Agrawal and R. Zhang, In: Antisense Research and Application, S. T. Crooke, ed.), Handbook of Experimental Pharmacology, Springer, Berlin, p. 525–543 (1998). Therefore, HYB 165 and the control oligonucleotide were administered to GEO tumor-bearing mice as described above, except that HYB 165 and the control oligonucleotide were administered orally.
On day 7 after tumor cell injection, one group of 10 mice was treated with taxol (20 mg/kg/dose, i.p.), and the treatment was repeated every 2 weeks (on day 21 and day 35) for a total of three cycles. Two other groups of mice were treated with either HYB 165 (AS RIα) or a control MBO with a scrambled sequence (10 mg/kg/dose, p.o.), daily for five days (days 8–12). Treatment was repeated every 2 weeks (days 22–26 and days 36–40) for a total of three cycles. Two more groups of mice were treated with taxol and either HYB 165 or the control MBO, administering the taxol (20 mg/kg/dose, i.p.) on day 7, followed by oral administration of either HYB 165 or the control MBO daily for five days (days 8–12). The sequential treatment was repeated with the same schedule every 2 weeks for a total of three cycles.

[5] = system: Factor VIII related antigen; experiment: Tumor-induced neovascularization (anti-Factor VIII related antigen immunohistochemistry); type: in vivo; conditions: single agent, vs untreated mice or scramble MBO
Excerpt: In recent years, the critical role of tumor-induced neovascularization in neoplastic development, progression and metastasis has been elucidated (J. I. Fokman, In: J. Mendelsohn et al., eds., The Molecular Basis of Cancer, pp 206–232, Philadelphia: W B Saunders (1995) . A reliable histologic estimate of novel blood vessels on tumor specimens is the microvessel count (MVC) in the most intense areas of neovascularization. In the present study, tumor-induced neovascularization was quantified by immunohistochemistry using an anti-Factor VIII related antigen monoclonal antibody (N. Weidner, Breast Cancer Res. Treat., 36:169–180 (1995)).

[6] = system: AR; experiment: Histochemical analysis of GEO tumors: AR; type: in vivo; conditions: single agent, after two cycles
Excerpt: as §2, §3

[7] = system: ZR75-1 human breast cancer cells; experiment: Soft agar growth of ZR75-1 cells; type: cell-based
Description: as §1, with “docetaxel” for “paclitaxel”, “[…] Twelve” for “The HYB 165 was added after 12 hrs (day 1) and on day 2, 3 and 4. 12”
as §1, with “docetaxel” for “paclitaxel”, “[…] Twelve” for “The HYB 165 was added after 12 hrs (day 1) and on day 2, 3 and 4. 12”
as §1, with “Soft agar growth. Cells” for “Cells”, “docetaxel” for “paclitaxel”, “3. Twelve” for “2, 3 and 4. 12”
(§4) Soft agar growth. Cells (10^4 cells/well) were seeded in 0.5 ml of 0.3% Difco Noble agar (Difco, Detroit, Mich.) supplemented with complete culture medium. This suspension was layered over 0.5 ml of 0.8% agar-medium base layer in 24 multiwell cluster dishes (Becton Dickinson) and treated with various concentrations of docetaxel (day 0). The HYB 508 was added after 12 hrs and on day 2, 3 and 4. After 12 days the cells were stained with nitroblue tetrazolium (Sigma) and colonies larger than 0.05 mm were counted.
Soft agar growth. Cells (10^4 cells/well) were seeded in 0.5 ml of 0.3% Difco Noble agar (Difco, Detroit, Mich.) supplemented with complete culture medium. […] After 12 days the cells were stained with nitroblue tetrazolium (Sigma) and colonies larger than 0.05 mm were counted.
as §4, with “of” for “of docetaxel (day 0). The”, “165 or HYB295 every 48 hours for three times.” for “508 was added after 12 hrs and on day 2, 3 and 4.”, “(Sigma, St. Louis, Mo.)” for “(Sigma)”
as §4, with “of” for “of docetaxel (day 0). The”, “165 or HYB508 every 48 hours for three times.” for “508 was added after 12 hrs and on day 2, 3 and 4.”, “(Sigma, St. Louis, Mo.)” for “(Sigma)”

[8] = system: LS-174T human colon carcinoma cells; experiment: LS-174T tumor growth and antisense treatment; type: in vivo, athymic mice; conditions: single s.c. dose 1 mg per mouse, FIG. 1
Description: LS-174T human colon carcinoma cells (1×10^6 cells) were inoculated subcutaneously (s.c.) into the left flank of athymic mice. A single dose of RIα antisense hybrid (Oligo 165, SEQ ID NO:4), inverted hybrid (Oligo 166, SEQ ID NO:6), or antisense (Oligo 164, SEQ ID NO:1) oligonucleotides or control oligonucleotide (Oligo 169, SEQ ID NO:7); Oligo 168 (SEQ ID NO:5); Oligo 188, (SEQ ID NO:3) as shown in Table 1 (1 mg per 0.1 ml saline per mouse), or saline (0.1 ml per mouse), was injected s.c. into the right flank of mice when tumor size reached 80 to 100 mg, about 1 week after cell inoculation. Tumor volumes were obtained from daily measurement of the longest and shortest diameters and calculation by the formula, 4/3πr^3 where r=(length+width)/4. At each indicated time, two animals from the control and antisense-treated groups were killed, and tumors were removed and weighed.

Compound: CC(=O)O[C@H]1C(=O)[C@@]2(C)[C@H]([C@H](OC(=O)c3ccccc3)[C@]3(O)C[C@H](OC(=O)[C@H](O)[C@@H](NC(=O)c4ccccc4)c4ccccc4)C(C)=C1C3(C)C)[C@]1(OC(C)=O)CO[C@@H]1C[C@@H]2O [paclitaxel, reference compound]
- inhibition at 0.001 µM ([1]; Homo sapiens, paclitaxel 1 nM alone): < 5%
- inhibition at 0.005 µM ([1]; Homo sapiens, paclitaxel 5 nM alone): ~20%
- inhibition at 0.01 µM ([1]; Homo sapiens, paclitaxel 10 nM alone): ~58%
- growth inhibition ([1]; paclitaxel alone, doses ranging between 0.1 and 10 nM, maximum): up to 60%
- expression of TGFα [2]: Unlike taxol, treatment with HYB 165 inhibited the expression of TGF α and AR
- p27 expression [3]: Unlike taxol, HYB 165 alone is able to increase p27 expression
- tumor growth ([4]; three cycles (taxol 20 mg/kg/dose i.p.; MBO 10 mg/kg/dose p.o.), FIG. 17A): inhibited tumor growth
- survival time ([4]; three cycles, FIG. 17B): slight increase in survival time
- inhibition of staining (microvessel count) [5]: over 60%
- expression of AR [6]: Unlike taxol, treatment with HYB 165 inhibited the expression of TGF α and AR

Compound: CC(=O)O[C@@]12CO[C@@H]1C[C@H](O)[C@@]1(C)C(=O)[C@H](O)C3=C(C)[C@@H](OC(=O)[C@H](O)[C@@H](NC(=O)OC(C)(C)C)c4ccccc4)C[C@@](O)([C@@H](OC(=O)c4ccccc4)[C@H]21)C3(C)C [docetaxel, reference compound]
- inhibition at 10 pM ([7]; Homo sapiens, ZR-75-1, docetaxel 0.01 nM alone (Examples 13, 14)): < 12%
- inhibition at 10 pM ([7]; Homo sapiens, ZR-75-1, docetaxel 0.01 nM alone (Examples 21, 22)): < 15%
- inhibition at 30 pM ([7]; Homo sapiens, ZR-75-1, docetaxel 0.03 nM alone (Examples 21, 22)): ~40%
- inhibition at 0.0001 µM ([7]; Homo sapiens, ZR-75-1, docetaxel 0.1 nM alone (Examples 21, 22)): ~72%
- inhibition at 0.0003 µM ([7]; Homo sapiens, ZR-75-1, docetaxel 0.3 nM alone (Examples 21, 22)): ~85%
- growth inhibition ([7]; docetaxel alone, doses ranging between 0.01 and 0.3 nM, maximum): up to 80%

Compound: Oligo 168: Mismatched hybrid control GCG CGC CTC CTC GCU GGC, SEQ ID NO:5 (GCGCGCCTCCTCGCUGGC; hybrid: 2'-O-methyl ribonucleotide ends, DNA middle, exact positions not given here) [reference compound]
- size of the tumor [8]: little ability to keep tumor size at a minimum relative to the hybrid and inverted hybrid oligonucleotides

Compound: Oligo 166: Inverted hybrid antisense 18-mer GCG TGC CUC CUC ACT GGC, SEQ ID NO:6 (antisense GCGTGCCUCCUCACTGGC; inverted hybrid: 2'-O-methyl ribonucleotide middle segment, DNA flanks, exact positions not given here)
- size of the tumor [8]: smaller from three days after injection onward than the phosphorothioate oligonucleotide 164

Reference: US7074768B2, “Modified protein kinase A-specific oligonucleotides and methods of their use” (Idera Pharmaceuticals, Inc., priority 1995, dated 2006)
